The values below come from patent US20040204499A1, “Preparation for breast duct fluid collection” (priority 2000, published 2004).

The data set is described as follows: Clinical trial of breast ductal lavage with topical, subcutaneous and/or intraductal anesthesia; patient-recorded pain and post-procedure notes. The class given is in vivo, human.

Procedure: A clinical trial was conducted at several different clinical sites by several different physician practitioners. Sometimes the procedures were conducted by practitioners using topical application of anesthetic, subcutaneous anesthesia injection, sometimes using intraductal anesthesia infusion and sometimes all three. […] Apply EMLATM cream (topical anesthetic cream) to the nipple and areola as described in the package insert. […] Dekeratinize the nipple using gauze and a small amount of Omniprep® paste (dekeratinizing agent) or […] gel. Clean the nipple and areola with alcohol and gauze. […] Before attempting ductal catheterization, identify the ductal orifice under magnification, by using the breast aspirator and/or by gently squeezing on the nipple to yield discharge. Use of an incandescent lamp to warm the nipple may help relax the sphincter, thus making cannulation of the duct easier. […] Prepare the nipple and areola with a suitable disinfectant and perform nipple field block as needed. […] Open the catheter package. For intraductal administration of anesthetic, attach anesthetic syringe to inflow (i.e., lower) port and prime the tubing until fluid is expressed through the catheter body and outflow port; leave the syringe attached. […] Ensure that approximately 1 cm of the guidewire protrudes from the catheter tip. Under magnification assistance, if necessary, introduce the pre-seated guidewire/catheter unit into the desired ductal orifice to confirm the location and orientation of the duct. Advance the catheter gradually until the catheter is seated; remove the wire completely. […] Crimp the outflow tubing to prevent return of the anesthetic into the inflow tube. Administer approximately 1 cc of anesthetic through the inflow port (i.e., lower port). Administer more anesthetic as indicated. Disconnect the syringe and set aside for later use. Twist the plunger of a sterile 10 cc syringe to free the seal and attach the syringe to the outflow port. […] Connect saline filled syringe to the inflow (i.e., lower) port. The catheter is now ready for use. […] When Performing saline ductal lavage (i.e. fluid infusion and return): Crimp the outflow tubing to prevent early return into the outflow syringe. Using a 10 cc syringe filled with saline, gradually infuse saline in 0.5 cc increments, or until there is slight resistance or some discomfort (typically 2-3 mLs). Release the crimp on the outflow tubing. Massage the breast towards the nipple with both hands for 30 seconds, especially over the infused duct, taking care not to dislodge the catheter. Cloudy fluid and/or small air bubbles may collect in the catheter body, indicating fluid flow. Crimp the inflow tubing and apply suction to the outflow tubing. […]

`CCN(CC)CC(=O)Nc1c(C)cccc1C` [lidocaine]: where the note is “conclusion drawn from Table I”, the “lavage pain, intraductal administration compared to subcutaneous injection of anesthetic” value is given as “no greater”. The “pain upon intraductal administration of anesthetic” value (in some cases, particularly practitioner RP) is “very low”. Further, the post procedure notes entry (patient feedback a day to two weeks after procedure, intraductal lidocaine only) is “pain”. Further, under “practitioner PS, routine subcutaneous administration in a field block”, the bruising result is reported as “highest amount of bruising”.
